# Assay results reported in patent US8912184B1, “Therapeutic and diagnostic methods” (Alzheimer's Institute of America, Inc., priority 2010, dated 2014).
# Like-named read-outs stand apart in the source and are kept apart here.
# System: cancer cell lines
# Assay: Standard Cytotoxicity Assay for other cancer cell types (TC50, CellTiter-Glo)
# Format: cell-based
# Method: Approximately 24 hours later, test compound was added from serial dilutions prepared in DMSO from DMSO stock solutions.
structure (smiles),measurement,setting,value
"O=C(NCc1cccnc1)Nc1ccc(COc2ccccc2-c2ccccc2)cc1 [Exemplary Compound A, 1-{4-[(biphenyl-2-yloxy)methyl]phenyl}-3-(pyridin-3-ylmethyl)urea]",CC50,"72 h, DB (lymphoma), 3 DAY, read-out: TC50 (the source's name)",3.5 nM
same,CC50,"72 h, DEL cells (lymphoma), 3 day, read-out: Cmpd A 3 day TC50",41 nM
same,CC50,"72 h, MC/CAR cells (myeloma), 3 day, read-out: Cmpd A 3 day TC50",8.2 nM
same,CC50,"72 h, NAMALWA cells (lymphoma), 3 day, read-out: Cmpd A 3 day TC50",0.85 nM
same,CC50,"Calu-6 cells (lung (NSCLC)), 3 day, read-out: Cmpd A 3 day TC50",12 nM
same,CC50,"DU145 cells (prostate), 3 day, read-out: Cmpd A 3 day TC50",3.8 nM
same,CC50,"Daudi cells (lymphoma), 3 day, read-out: Cmpd A 3 day TC50",< 0.8 nM
same,CC50,"Homo sapiens, 22Rv1, 72 h, 22RV1 cells (prostate), 3 day, read-out: Cmpd A 3 day TC50",8.4 nM
same,CC50,"Homo sapiens, A 172, 72 h, A172 (glioma), 3 DAY, read-out: TC50 (the source's name)",1.1 nM
same,CC50,"Homo sapiens, A498, 72 h, A498 cells (kidney), 3 day, read-out: Cmpd A 3 day TC50",43 nM
same,CC50,"Homo sapiens, A2058, 72 h, A2058 cells (melanoma (lymph node metastasis)), 3 day, read-out: Cmpd A 3 day TC50",3.4 nM
same,CC50,"Homo sapiens, ACHN, 72 h, ACHN cells (kidney), 3 day, read-out: Cmpd A 3 day TC50",3.7 nM
same,CC50,"Homo sapiens, BT-20, 72 h, BT-20 cells (breast), 3 day, read-out: Cmpd A 3 day TC50",13 nM
same,CC50,"Homo sapiens, BT-474, 168 h, BT-474 cells (breast), 7 day, read-out: Cmpd A 7 day TC50",1.1 nM
same,CC50,"Homo sapiens, BXPC-3, 72 h, BxPC-3 cells (pancreas), 3 day, read-out: Cmpd A 3 day TC50",11 nM
same,CC50,"Homo sapiens, CAMA-1, 72 h, CAMA-1 cells (breast), 3 day, read-out: Cmpd A 3 day TC50",4.6 nM
same,CC50,"Homo sapiens, CCRF-CEM, 72 h, CCRF-CEM cells (lymphocytic leukemia), 3 day, read-out: Cmpd A 3 day TC50",2 nM
same,CC50,"Homo sapiens, COLO 205, 72 h, COLO205 (colon), 3 DAY, read-out: TC50 (the source's name)",0.5 nM
same,CC50,"Homo sapiens, COLO 205, 168 h, COLO205 (colon), 7 DAY, read-out: TC50 (the source's name)",0.3 nM
same,CC50,"Homo sapiens, COLO 205, 168 h, COLO205 cells (colon), 7 day, read-out: Cmpd A 7 day TC50",0.3 nM
same,CC50,"Homo sapiens, Calu-6, 72 h, Calu-6 cells (lung (NSCLC)), 3 day, read-out: Cmpd A 3 day TC50",11 nM
same,CC50,"Homo sapiens, DBTRG-05MG, 72 h, DBTRG-05MG cells (brain; glioblastoma), 3 day, read-out: Cmpd A 3 day TC50",19 nM
same,CC50,"Homo sapiens, DLD-1, 72 h, DLD-1 cells (colon), 3 day, read-out: Cmpd A 3 day TC50",1.7 nM
same,CC50,"Homo sapiens, DMS-114, 72 h, DMS-114 (SCLC), 3 DAY, read-out: TC50 (the source's name)",0.16 nM
same,CC50,"Homo sapiens, DU-145, 72 h, DU145 (prostate), 3 DAY, read-out: TC50 (the source's name)",3.9 nM
same,CC50,"Homo sapiens, DU-145, 72 h, DU145 cells (prostate), 3 day, read-out: Cmpd A 3 day TC50",3.9 nM
same,CC50,"Homo sapiens, DU-145, 168 h, DU145 (prostate), 7 DAY, read-out: TC50 (the source's name)",2.7 nM
same,CC50,"Homo sapiens, DU-145, 168 h, DU145 cells (prostate), 7 day, read-out: Cmpd A 7 day TC50",3 nM
same,CC50,"Homo sapiens, DU-4475, 72 h, DU4475 (breast), 3 DAY, read-out: TC50 (the source's name)",0.1 nM
same,CC50,"Homo sapiens, DU-4475, 72 h, DU4475 cells (breast), 3 day, read-out: Cmpd A 3 day TC50",0.1 nM
same,CC50,"Homo sapiens, DU-4475, 168 h, DU4475 (breast), 7 DAY, read-out: TC50 (the source's name)",0.1 nM
same,CC50,"Homo sapiens, DU-4475, 168 h, DU4475 cells (breast), 7 day, read-out: Cmpd A 7 day TC50",0.1 nM
same,CC50,"Homo sapiens, Daudi, 72 h, Daudi cells (lymphoma), 3 day, read-out: Cmpd A 3 day TC50",1.4 nM
same,CC50,"Homo sapiens, EKVX, 72 h, EKVX cells (lung (NSCLC)), 3 day, read-out: Cmpd A 3 day TC50",4 nM
same,CC50,"Homo sapiens, EKVX, 168 h, EKVX cells (lung (NSCLC)), 7 day, read-out: Cmpd A 7 day TC50",1 nM
same,CC50,"Homo sapiens, H9, 72 h, H9 cells (lymphoma), 3 day, read-out: Cmpd A 3 day TC50",3.2 nM
same,CC50,"Homo sapiens, HCC827, 72 h, HCC827 (NSCLC), 3 DAY, read-out: TC50 (the source's name)",8 nM
same,CC50,"Homo sapiens, HCC827, 72 h, HCC827 cells (lung (NSCLC)), 3 day, read-out: Cmpd A 3 day TC50",8 nM
same,CC50,"Homo sapiens, HCC827, 168 h, HCC827 (NSCLC), 7 DAY, read-out: TC50 (the source's name)",1.5 nM
same,CC50,"Homo sapiens, HCC827, 168 h, HCC827 cells (lung (NSCLC)), 7 day, read-out: Cmpd A 7 day TC50",1.5 nM
same,CC50,"Homo sapiens, HCC1937, 72 h, HCC1937 cells (breast), 3 day, read-out: Cmpd A 3 day TC50",61 nM
same,CC50,"Homo sapiens, HCC1937, 168 h, HCC1937 cells (breast), 7 day, read-out: Cmpd A 7 day TC50",1.5 nM
same,CC50,"Homo sapiens, HCT-15, 72 h, HCT-15 (colon), 3 DAY, read-out: TC50 (the source's name)",0.7 nM
same,CC50,"Homo sapiens, HCT-15, 168 h, HCT-15 (colon), 7 DAY, read-out: TC50 (the source's name)",1 nM
same,CC50,"Homo sapiens, HCT-15, 168 h, HCT-15 cells (colon), 7 day, read-out: Cmpd A 7 day TC50",1 nM
same,CC50,"Homo sapiens, HCT-116, 72 h, HCT116 (colon), 3 DAY, read-out: TC50 (the source's name)",0.6 nM
same,CC50,"Homo sapiens, HCT-116, 72 h, HCT-116 cells (colon), 3 day, read-out: Cmpd A 3 day TC50",0.2 to 4.4 nM
same,CC50,"Homo sapiens, HCT-116, 168 h, HCT116 (colon), 7 DAY, read-out: TC50 (the source's name)",0.4 nM
same,CC50,"Homo sapiens, HCT-116, 168 h, HCT-116 cells (colon), 7 day, read-out: Cmpd A 7 day TC50",0.4 nM
same,CC50,"Homo sapiens, HL-60, 72 h, HL-60 cells (myelogenous leukemia), 3 day, read-out: Cmpd A 3 day TC50",5.3 nM
same,CC50,"Homo sapiens, HOP-62, 72 h, HOP62 cells (lung (NSCLC)), 3 day, read-out: Cmpd A 3 day TC50",4 nM
same,CC50,"Homo sapiens, HOP-92, 72 h, HOP92 (NSCLC), 3 DAY, read-out: TC50 (the source's name)",17 nM
same,CC50,"Homo sapiens, HOP-92, 72 h, HOP92 cells (lung (NSCLC)), 3 day, read-out: Cmpd A 3 day TC50",17 nM
same,CC50,"Homo sapiens, HOP-92, 168 h, HOP92 (NSCLC), 7 DAY, read-out: TC50 (the source's name)",4.3 nM
same,CC50,"Homo sapiens, HOP-92, 168 h, HOP92 cells (lung (NSCLC)), 7 day, read-out: Cmpd A 7 day TC50",4.3 nM
same,CC50,"Homo sapiens, HOS, 72 h, HOS cells (osteosarcoma), 3 day, read-out: Cmpd A 3 day TC50",< 0.8 nM
same,CC50,"Homo sapiens, HT-29, 72 h, HT29 (colon), 3 DAY, read-out: TC50 (the source's name)",1.4 nM
same,CC50,"Homo sapiens, HT-29, 72 h, HT29 cells (colon), 3 day, read-out: Cmpd A 3 day TC50",1.4 nM
same,CC50,"Homo sapiens, HT-29, 168 h, HT29 (colon), 7 DAY, read-out: TC50 (the source's name)",1.1 nM
same,CC50,"Homo sapiens, HT-29, 168 h, HT29 cells (colon), 7 day, read-out: Cmpd A 7 day TC50",1.1 nM
same,CC50,"Homo sapiens, HT-1080, 72 h, HT1080 (sarcoma), 3 DAY, read-out: TC50 (the source's name)",1 nM
same,CC50,"Homo sapiens, HT-1080, 72 h, HT1080 cells (fibrosarcoma), 3 day, read-out: Cmpd A 3 day TC50",1 nM
same,CC50,"Homo sapiens, HT-1080, 168 h, HT1080 (sarcoma), 7 DAY, read-out: TC50 (the source's name)",0.6 nM
same,CC50,"Homo sapiens, HT-1080, 168 h, HT1080 cells (fibrosarcoma), 7 day, read-out: Cmpd A 7 day TC50",0.6 nM
same,CC50,"Homo sapiens, IGROV-1, 72 h, IGR-OV1 cells (ovary), 3 day, read-out: Cmpd A 3 day TC50",2 nM
same,CC50,"Homo sapiens, JJN-3, 72 h, JJN3 cells (myeloma (plasma cell leukemia)), 3 day, read-out: Cmpd A 3 day TC50",0.9 nM
same,CC50,"Homo sapiens, K562, 72 h, K562 cells (myelogenous leukemia), 3 day, read-out: Cmpd A 3 day TC50",5.7 nM
same,CC50,"Homo sapiens, KARPAS-299, 72 h, KARPAS-299 cells (lymphocytic leukemia), 3 day, read-out: Cmpd A 3 day TC50",20 nM
same,CC50,"Homo sapiens, KINGS-1, 72 h, KINGS-1 cells (brain, anaplastic astrocytoma (glioma)), 3 day, read-out: Cmpd A 3 day TC50",2 nM
same,CC50,"Homo sapiens, KM12, 72 h, KM12 (colon), 3 DAY, read-out: TC50 (the source's name)",0.9 nM
same,CC50,"Homo sapiens, KM12, 72 h, KM12 cells (colon), 3 day, read-out: Cmpd A 3 day TC50",0.9 nM
same,CC50,"Homo sapiens, KM12, 168 h, KM12 (colon), 7 DAY, read-out: TC50 (the source's name)",0.4 nM
same,CC50,"Homo sapiens, KM12, 168 h, KM12 cells (colon), 7 day, read-out: Cmpd A 7 day TC50",0.4 nM
same,CC50,"Homo sapiens, LOX IMVI, 72 h, LOX-IMVI cells (melanoma), 3 day, read-out: Cmpd A 3 day TC50",15 nM
same,CC50,"Homo sapiens, MCF7, 72 h, MCF7 cells (breast), 3 day, read-out: Cmpd A 3 day TC50",2.2 nM
same,CC50,"Homo sapiens, MDA-MB-231, 72 h, MDA-MB-231 (breast), 3 DAY, read-out: TC50 (the source's name)",10 nM
same,CC50,"Homo sapiens, MDA-MB-231, 168 h, MDA-MB-231 (breast), 7 DAY, read-out: TC50 (the source's name)",7.5 nM
same,CC50,"Homo sapiens, MDA-MB-231, 168 h, MDA-MB-231 cells (breast), 7 day, read-out: Cmpd A 7 day TC50",8 nM
same,CC50,"Homo sapiens, MDA-MB-436, 72 h, MDA-MB-436 cells (breast), 3 day, read-out: Cmpd A 3 day TC50",17 nM
same,CC50,"Homo sapiens, MIA PaCa-2, 72 h, MIA PaCa-2 (pancreatic), 3 DAY, read-out: TC50 (the source's name)",1.8 nM
same,CC50,"Homo sapiens, MIA PaCa-2, 72 h, MiaPaCa2 cells (pancreas), 3 day, read-out: Cmpd A 3 day TC50",1.8 nM
